Where a name gives a salt, the structure may show the parent alone.
Test system: Isolated, single ring preparations of guinea-pig trachea
Test: relaxant effect after tone contracture induced by histamine in isolated guinea-pig trachea rings
Format: cell-based
Conditions: Cavia porcellus, contracture by histamine (40 μM), flurbiprofen (1 μM) present, 37° C., cumulative concentration-effect curves
Procedure: Compounds of formula I show strong bronchodilator activity, which for instance can be measured by the relaxant effect of the compounds after tone contracture by histamine, which is determined as follows. Isolated, single ring preparations of guinea-pig trachea were suspended in tissue baths containing KrebsHenseleit solution, at 37° C., bubbled with a gaseous mixture of 5% CO2 and 95% 02 Tissues were allowed to equilibrate for 60 min. after which flurbiprofen (1 μM), a cyclo-oxygenase inhibitor, was added to the tissue bath and a further 60 min. equilibration allowed to elapse. The flurbiprofen remained in contact with the tissue for the duration of the experiment in order to eliminate the complications that arise in guinea-pig airway preparations due to the spontaneous and agonist-induced generation of cyclo-oxygenase products (for example PGE2 and PGF2α) No other drugs (e.g. atropine or β-adrenoceptor antagonists) were present during the experimental protocol. […] Thus, tone (contracture) was induced by addition of an equi-effective (EC50) concentration of histamine (40 μM). The relaxant effects of each compound were tested by constructing cumulative concentration-effect curves. In each experiment, three preparations were contracted with histamine. After completion of the relaxant concentration-effect curves the compound under test was thoroughly washed out from the preparations which were then left to recover to control levels of resting tension (approx. 60 min.). Results of this test for the compounds of formula I are denoted in the table.

SMILES	EC50
COc1cc2cc(C(=N)NO)sc2cc1OC [H OCH3 H NH2 S none, N-hydroxy-5,6-dimethoxy-benzo[b]thiophene-2-carboximidamide]	8 µM
COc1cc2sc(C(=N)NO)cc2c(Cl)c1O [Cl OH H NH2 S HCl, 4-chloro-5,N-dihydroxy-6-methoxy-benzo[b]thiophene-2-carboximidamide hydrochloride]	10 µM
COc1cc2sc(C(=N)NO)cc2cc1OC(F)F [H OCHF2 H NH2 S HCl, 5-difluoromethyloxy-N-hydroxy-6-methoxy-benzo[b]thiophene-2-carboximidamide hydrochloride]	5 µM
COc1cc2cc(/C=N\O)sc2cc1OC [H OCH3 H H(Z-isomer) S none, (Z)-5,6-dimethoxy-benzo[b]thiophene-2-carboxaldehyde oxime]	5 µM
COc1cc(OC)c2cc(C(=N)NO)oc2c1 [OCH3 H H NH2 O HCl, N-hydroxy-4,6-dimethoxy-benzo[b]furan-2-carboximidamide]	5 µM
COc1cc2sc(C=NO)cc2c(Cl)c1OC (mixture of isomers) [Cl OCH3 H H(Z/E mixture) S none, 4-chloro-5,6-dimethoxy-benzo[b]thiophene-2-carboxaldehyde oxime]	5 µM
COc1c(OC)c(Cl)c2sc(C(=N)NO)cc2c1Cl [Cl OCH3 Cl NH2 S HCl, 4,7-dichloro-N-hydroxy-5,6-dimethoxy-benzo[b]thiophene-2-carboximidamide hydrochloride]	8 µM

Molecules with a lower EC50, results first:

EC50	SMILES
1 µM	COc1cc2sc(C(=N)NO)cc2c(Br)c1OC [Br OCH3 H NH2 S CH3 SO3 H, 4-bromo-N-hydroxy-5,6-dimethoxy-benzo[b]thiophene-2-carboximidamide methanesulphonate]
2.5 µM	COc1cc2sc(C(=N)NO)cc2c(F)c1OC [F OCH3 H NH2 S CH3 SO3 H, 4-fluoro-N-hydroxy-5,6-dimethoxy-benzo[b]thiophene-2-carboximidamide]
3 µM	COc1cc2c(cc1OC)CCC(C(=N)NO)=C2 [H OCH3 H NH2 (CH2)2 HCl, 1,2-dihydro-N-hydroxy-6,7-dimethoxy-naphthalene-3-carboximidamide]
2 µM	COc1cc2cc(/C=N/O)sc2cc1OC [H OCH3 H H(E-isomer) S none, (E)-5,6-dimethoxy-benzo[b]thiophene-2-carboxaldehyde oxime]
0.1 µM	COc1cc2cc(/C(C)=N/O)sc2cc1OC [H OCH3 H CH3 (E-isomer) S none, (E)-1-(5,6-dimethoxy-benzo[b]thien-2-yl)-ethanone oxime]

— patent publication US5026724A, “Compounds with bronchodilator activity” (Akzo N.V., priority 1988, dated 1991)
